In paper PMC4001772 (The Journal of General Physiology, 2014):
pEC50, pKi: −log10 of the molar value.

Legend:
Test in all cases: inside-out patch clamp of Xenopus oocytes
Type in all cases: cell-based
[1] = target: T1, CFTR (Homo sapiens, UniProt P13569)
[2] = target: CFTR (Homo sapiens, UniProt P13569, E1371S)
[3] = target: CFTR (Homo sapiens, UniProt P13569, K1250A)
[4] = target: T1, CFTR; remark: listed apart in the source

Sequence of CFTR (Homo sapiens, UniProt P13569, E1371S) (P13569 whole entry E1371S): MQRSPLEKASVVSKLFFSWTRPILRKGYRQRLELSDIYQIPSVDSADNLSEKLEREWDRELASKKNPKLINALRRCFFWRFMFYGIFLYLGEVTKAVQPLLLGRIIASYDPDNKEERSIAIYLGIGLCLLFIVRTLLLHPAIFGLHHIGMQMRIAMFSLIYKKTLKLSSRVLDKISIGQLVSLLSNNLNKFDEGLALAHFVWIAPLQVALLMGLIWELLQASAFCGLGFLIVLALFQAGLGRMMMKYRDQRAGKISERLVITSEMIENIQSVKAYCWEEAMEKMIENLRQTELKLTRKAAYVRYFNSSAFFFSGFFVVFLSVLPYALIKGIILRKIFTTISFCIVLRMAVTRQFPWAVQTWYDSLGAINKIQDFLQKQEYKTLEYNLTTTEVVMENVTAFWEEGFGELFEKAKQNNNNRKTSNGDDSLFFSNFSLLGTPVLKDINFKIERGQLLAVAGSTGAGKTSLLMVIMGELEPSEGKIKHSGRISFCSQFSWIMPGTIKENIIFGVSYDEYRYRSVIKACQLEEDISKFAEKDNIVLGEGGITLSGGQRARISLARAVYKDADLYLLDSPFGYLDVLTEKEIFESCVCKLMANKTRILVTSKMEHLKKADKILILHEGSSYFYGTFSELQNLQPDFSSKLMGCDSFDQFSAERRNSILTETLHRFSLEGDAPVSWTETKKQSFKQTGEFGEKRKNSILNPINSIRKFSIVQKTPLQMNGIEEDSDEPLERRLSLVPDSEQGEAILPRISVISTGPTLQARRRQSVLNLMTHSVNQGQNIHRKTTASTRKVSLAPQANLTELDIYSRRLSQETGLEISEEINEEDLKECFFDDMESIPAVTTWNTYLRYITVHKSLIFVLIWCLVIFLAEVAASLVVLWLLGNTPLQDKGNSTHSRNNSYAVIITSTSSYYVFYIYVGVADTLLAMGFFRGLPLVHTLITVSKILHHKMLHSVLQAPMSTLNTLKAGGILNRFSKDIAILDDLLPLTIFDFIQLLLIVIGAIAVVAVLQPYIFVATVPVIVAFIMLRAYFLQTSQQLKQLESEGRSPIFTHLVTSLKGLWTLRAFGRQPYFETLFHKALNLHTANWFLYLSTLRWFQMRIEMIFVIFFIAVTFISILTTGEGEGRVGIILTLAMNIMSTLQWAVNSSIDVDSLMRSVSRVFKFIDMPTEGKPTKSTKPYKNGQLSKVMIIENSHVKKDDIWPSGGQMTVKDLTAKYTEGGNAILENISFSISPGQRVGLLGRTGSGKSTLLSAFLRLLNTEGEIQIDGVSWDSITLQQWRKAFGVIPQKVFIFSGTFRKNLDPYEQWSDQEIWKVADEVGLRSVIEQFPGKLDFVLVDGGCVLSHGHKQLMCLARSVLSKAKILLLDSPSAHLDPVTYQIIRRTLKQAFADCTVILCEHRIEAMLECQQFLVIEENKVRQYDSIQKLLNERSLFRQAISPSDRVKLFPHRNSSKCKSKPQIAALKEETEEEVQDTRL
T1 sequence (P13569 whole entry): as the sequence (P13569 whole entry E1371S) above, with S1371E counted along it
Sequence of CFTR (Homo sapiens, UniProt P13569, K1250A) (P13569 whole entry K1250A): as the sequence (P13569 whole entry E1371S) above, with K1250A, S1371E counted along it

| pKi [1] | pKi [2] | pEC50 [3] | pEC50 [4] | Structure (SMILES) |
| --- | --- | --- | --- | --- |
| ~1.82 | ~2.10 | – | – | O=S(=O)(O)CCCN1CCOCC1 [MOPS] |
| – | ~4.70 | ~4.00 | ~4.05 | O=C(O)c1cc([N+](=O)[O-])ccc1NCCCc1ccccc1 [NPPB, 5-nitro-2-(3-phenylpropylamino)benzoate] |
